Literature values as cited in US20210198628A1, “BASAL MEDIA FOR GROWING NK-92 CELLS” (NantKwest, Inc., priority 2018, published 2021).

Conditions: in vivo

For `CC[C@H](C(=O)N1CCCC[C@H]1C(=O)O[C@H](CCc1ccc(OC)c(OC)c1)c1cccc(OCC(=O)NCCNC(=O)COc2cccc([C@@H](CCc3ccc(OC)c(OC)c3)OC(=O)[C@@H]3CCCCN3C(=O)[C@@H](CC)c3cc(OC)c(OC)c(OC)c3)c2)c1)c1cc(OC)c(OC)c(OC)c1` [AP1903], the “tolerability in clinical studies” value is given as “well tolerated”.
